Test: Safety (TEAEs), JACKPOT3
Format: in vivo, human
Details: n = 6
Excerpt: The safety monitoring for both JACKPOT2 and JACKPOT3 was similar, included monitoring of adverse events/serious adverse events, clinical safety laboratory tests (clinical chemistry, hematology, coagulation, and urinalysis tests), 12-lead ECG, vital signs (blood pressure, pulse rate, and respiratory rate), and pulmonary function.

COc1nn(C)cc1Nc1nccc(-c2c[nH]c3c(NC(=O)[C@@H](C)N4CCN(C)CC4)cccc23)n1 [golidocitinib, (2R)-N-[3-[2-[(3-Methoxy-1-methyl-pyrazol-4-yl)amino]pyrimidin-4-yl]-1H-indol-7-yl]-2-(4-methylpiperazin-1-yl)propenamide]
LDL increased (50 mg): 1 (16.7%) n (%) | Leukocytosis (50 mg): 0 n (%) | Limb injury (50 mg): 0 n (%) | Metabolism and nutrition disorders (50 mg): 1 (16.7%) n (%) | Musculoskeletal and connective tissue disorders (50 mg): 0 n (%) | Musculoskeletal pain (50 mg): 0 n (%) | Musculoskeletal stiffness (50 mg): 0 n (%) | Neutrophil count decreased (50 mg): 0 n (%) | Productive cough (50 mg): 0 n (%) | Respiratory, Thoracic and Mediastinal Disorders (50 mg): 0 n (%) | Rhinorrhea (50 mg): 0 n (%) | Subjects with at least one TEAE (50 mg): 3 (50.0%) n (%) | Wound (50 mg): 0 n (%) | ALT Increased (100 mg): 1 (16.7%) n (%) | AST Increased (100 mg): 0 n (%) | Abdominal discomfort (100 mg): 0 n (%) | Blood and Lymphatic System Disorders (100 mg): 0 n (%) | Blood bilirubin increased (100 mg): 0 n (%) | Blood cholesterol increased (100 mg): 0 n (%) | C-reactive protein increased (100 mg): 1 (16.7%) n (%) | Diarrhea (100 mg): 0 n (%) | ECG QT prolonged (100 mg): 0 n (%) | Epistaxis (100 mg): 1 (16.7%) n (%) | Gastrointestinal disorders (100 mg): 0 n (%) | Glucose urine present (100 mg): 0 n (%) | Hemoglobin decreased (100 mg): 0 n (%) | Hypertriglyceridemia (100 mg): 2 (33.3%) n (%) | Injury, poisoning and procedural complications (100 mg): 0 n (%) | Investigations (100 mg): 2 (33.3%) n (%) | LDH increased (100 mg): 0 n (%) | LDL increased (100 mg): 0 n (%) | Leukocytosis (100 mg): 0 n (%) | Limb injury (100 mg): 0 n (%) | Metabolism and nutrition disorders (100 mg): 2 (33.3%) n (%) | Musculoskeletal and connective tissue disorders (100 mg): 1 (16.7%) n (%) | Musculoskeletal pain (100 mg): 0 n (%) | Musculoskeletal stiffness (100 mg): 1 (16.7%) n (%) | Neutrophil count decreased (100 mg): 0 n (%) | Productive cough (100 mg): 0 n (%) | Respiratory, Thoracic and Mediastinal Disorders (100 mg): 1 (16.7%) n (%) | Rhinorrhea (100 mg): 0 n (%) | Subjects with at least one TEAE (100 mg): 4 (66.7%) n (%) | Wound (100 mg): 0 n (%) | ALT Increased (150 mg): 0 n (%) | AST Increased (150 mg): 0 n (%) | Abdominal discomfort (150 mg): 0 n (%) | Blood and Lymphatic System Disorders (150 mg): 0 n (%) | Blood bilirubin increased (150 mg): 2 (33.3%) n (%) | Blood cholesterol increased (150 mg): 1 (16.7%) n (%) | C-reactive protein increased (150 mg): 1 (16.7%) n (%) | Diarrhea (150 mg): 1 (16.7%) n (%) | ECG QT prolonged (150 mg): 1 (16.7%) n (%) | Epistaxis (150 mg): 0 n (%) | Gastrointestinal disorders (150 mg): 1 (16.7%) n (%) | Glucose urine present (150 mg): 1 (16.7%) n (%) | Hemoglobin decreased (150 mg): 1 (16.7%) n (%) | Hypertriglyceridemia (150 mg): 2 (33.3%) n (%) | Injury, poisoning and procedural complications (150 mg): 1 (16.7%) n (%) | Investigations (150 mg): 4 (66.7%) n (%) | LDH increased (150 mg): 0 n (%) | LDL increased (150 mg): 1 (16.7%) n (%) | Leukocytosis (150 mg): 0 n (%) | Limb injury (150 mg): 0 n (%) | Metabolism and nutrition disorders (150 mg): 2 (33.3%) n (%) | Musculoskeletal and connective tissue disorders (150 mg): 1 (16.7%) n (%) | Musculoskeletal pain (150 mg): 1 (16.7%) n (%) | Musculoskeletal stiffness (150 mg): 0 n (%) | Neutrophil count decreased (150 mg): 2 (33.3%) n (%) | Productive cough (150 mg): 0 n (%) | Respiratory, Thoracic and Mediastinal Disorders (150 mg): 1 (16.7%) n (%) | Rhinorrhea (150 mg): 1 (16.7%) n (%) | Subjects with at least one TEAE (150 mg): 6 (100%) n (%) | Wound (150 mg): 1 (16.7%) n (%)
